This experiment deals with β-lactamase. In words: Detection of fluorescence of compound 15 with β-lactamase (microwell plate, plate fluorimeter). It counts as biochemical. The following applies: 75 μ, 37° C., 10 U.mL^−1, fluorescence measured over time, FIG. 1. The protocol: The fluorescence of compound 15 was evaluated with and without a β-lactamase. The test was performed by incubation/chemical reaction in a microwell plate (75 μ, 37° C., 10 U.mL^−1). The fluorescence was measured over time by a plate fluorimeter.

One molecule from patent publication US20230057033A1, “FLUOROGENIC BETA-LACTAMASE SUBSTRATE AND ASSOCIATED DETECTION METHOD” (MOLSID, priority 2019, published 2023) can be followed below.

Consider `O=C(Cc1cccs1)N[C@@H]1C(=O)N2C(C(=O)O)=C(COC(=O)NCC3CCCCN3C(=O)Oc3ccc(Cl)cc3-c3nc4ccc(Cl)cc4c(=O)[nH]3)CS[C@H]12` (stereo partly shown) [Compound 15], for which the “fluorescence generated in the presence of β-lactamase (hydrolysis, fragmentation and release of ELF 97)” value is “intense fluorescence”.
